Laboratory results from patent publication US6358885B1, “Substituted phenylheterocyclic herbicides” (Mississippi State University, priority 1992, dated 2002).

Experiments:
Experiment in all cases: Test B preemergence/postemergence greenhouse plant response rating 0 to 10
barley = format: in vivo, Hordeum vulgare; conditions: for Plant response rating, Barley: 0 to 10 scale
Procedure, shortened: (§1)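 Both application timings were run together: seeds got compound preemergence, and established seedlings (two to eighteen cm) got it postemergence. Non-phytotoxic solvent carried the chemical. Ratings are visual, versus controls, at twelve to sixteen days.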

barnyardgrass = format: in vivo, Echinochloa crus-galli; conditions: for Plant response rating, Barnyardgrass: 0 to 10 scale
Procedure, shortened: as §1

bedstraw = format: in vivo, Galium aparine; conditions: for Plant response rating, Bedstraw: 0 to 10 scale
Procedure, shortened: as §1

blackgrass = format: in vivo, Alopecurus myosuroides; conditions: for Plant response rating, Blackgrass: 0 to 10 scale
Procedure, shortened: as §1

cheatgrass = format: in vivo, Bromus secalinus; conditions: for Plant response rating, Cheatgrass: 0 to 10 scale
Procedure, shortened: as §1

chickweed = format: in vivo, Stellaria media; conditions: for Plant response rating, Chickweed: 0 to 10 scale
Procedure, shortened: as §1

cocklebur = format: in vivo, Xanthium pensylvanicum; conditions: for Plant response rating, Cocklebur: 0 to 10 scale
Procedure, shortened: as §1

corn = format: in vivo, Zea mays; conditions: for Plant response rating, Corn: 0 to 10 scale
Procedure, shortened: as §1

cotton = format: in vivo, Gossypium hirsutum; conditions: for Plant response rating, Cotton: 0 to 10 scale
Procedure, shortened: as §1

crabgrass = format: in vivo, Digitaria spp.; conditions: for Plant response rating, Crabgrass: 0 to 10 scale
Procedure, shortened: as §1

giant foxtail = format: in vivo, Setaria faberii; conditions: for Plant response rating, Giant foxtail: 0 to 10 scale
Procedure, shortened: as §1

lambsquarters = format: in vivo, Chenopodium album; conditions: for Plant response rating, Lambsquarter: 0 to 10 scale
Procedure, shortened: as §1

morningglory = format: in vivo, Ipomoea hederacea; conditions: for Plant response rating, Morningglory: 0 to 10 scale
Procedure, shortened: as §1

rape = format: in vivo, Brassica napus; conditions: for Plant response rating, Rape: 0 to 10 scale
Procedure, shortened: as §1

rice = format: in vivo, Oryza sativa; conditions: for Plant response rating, Rice: 0 to 10 scale
Procedure, shortened: as §1

sorghum = format: in vivo, Sorghum bicolor; conditions: for Plant response rating, Sorghum: 0 to 10 scale
Procedure, shortened: as §1

soybean = format: in vivo, Glycine max; conditions: for Plant response rating, Soybean: 0 to 10 scale
Procedure, shortened: as §1

sugar beet = format: in vivo, Beta vulgaris; conditions: for Plant response rating, Sugar beet: 0 to 10 scale
Procedure, shortened: as §1

velvetleaf = format: in vivo, Abutilon theophrasti; conditions: for Plant response rating, Velvetleaf: 0 to 10 scale
Procedure, shortened: as §1

wheat = format: in vivo, Triticum aestivum; conditions: for Plant response rating, Wheat: 0 to 10 scale
Procedure, shortened: as §1

wild buckwheat = format: in vivo, Polygonum convolvulus; conditions: for Plant response rating, Wild buckwheat: 0 to 10 scale
Procedure, shortened: as §1

wild oat = format: in vivo, Avena fatua; conditions: for Plant response rating, Wild oat: 0 to 10 scale
Procedure, shortened: as §1

purple nutsedge = format: in vivo, Cyperus rotundus; conditions: for Plant response rating, Nutsedge: 0 to 10 scale
Procedure, shortened: as §1

## CC(C)Oc1cc(-c2nn3c(c2Cl)CCCC3)c(Cl)cc1Cl [Compound 70]
barley; POSTEMERGENCE, Rate 50 g/ha
  Plant response rating, Barley: 3
barley; PREEMERGENCE, Rate 50 g/ha
  Plant response rating, Barley: 0
barley; PREEMERGENCE, Rate 200 g/ha
  Plant response rating (0 to 10 scale), Barley: 0
barley; Rate 200 g/ha, POSTEMERGENCE
  Plant response rating, Barley: 4
barnyardgrass; POSTEMERGENCE, Rate 50 g/ha
  Plant response rating, Barnyardgrass: 6
barnyardgrass; PREEMERGENCE, Rate 50 g/ha
  Plant response rating, Barnyardgrass: 0
barnyardgrass; PREEMERGENCE, Rate 200 g/ha
  Plant response rating (0 to 10 scale), Barnyardgrass: 0
barnyardgrass; Rate 200 g/ha, POSTEMERGENCE
  Plant response rating, Barnyardgrass: 7
bedstraw; POSTEMERGENCE, Rate 50 g/ha
  Plant response rating, Bedstraw: 8
bedstraw; PREEMERGENCE, Rate 50 g/ha
  Plant response rating, Bedstraw: 1
bedstraw; PREEMERGENCE, Rate 200 g/ha
  Plant response rating (0 to 10 scale), Bedstraw: 6
bedstraw; Rate 200 g/ha, POSTEMERGENCE
  Plant response rating, Bedstraw: 7
blackgrass; PREEMERGENCE, Rate 50 g/ha
  Plant response rating, Blackgrass: 0
blackgrass; PREEMERGENCE, Rate 200 g/ha
  Plant response rating (0 to 10 scale), Blackgrass: 0
blackgrass; Rate 200 g/ha, POSTEMERGENCE
  Plant response rating, Blackgrass: 3
cheatgrass; POSTEMERGENCE, Rate 50 g/ha
  Plant response rating, Cheatgrass: 3
cheatgrass; PREEMERGENCE, Rate 50 g/ha
  Plant response rating, Cheatgrass: 0
cheatgrass; PREEMERGENCE, Rate 200 g/ha
  Plant response rating (0 to 10 scale), Cheatgrass: 2
cheatgrass; Rate 200 g/ha, POSTEMERGENCE
  Plant response rating, Cheatgrass: 4
chickweed; POSTEMERGENCE, Rate 50 g/ha
  Plant response rating, Chickweed: 2
chickweed; PREEMERGENCE, Rate 50 g/ha
  Plant response rating, Chickweed: 0
chickweed; PREEMERGENCE, Rate 200 g/ha
  Plant response rating (0 to 10 scale), Chickweed: 0
chickweed; Rate 200 g/ha, POSTEMERGENCE
  Plant response rating, Chickweed: 3
cocklebur; POSTEMERGENCE, Rate 50 g/ha
  Plant response rating, Cocklebur: 8
cocklebur; PREEMERGENCE, Rate 50 g/ha
  Plant response rating, Cocklebur: 0
cocklebur; PREEMERGENCE, Rate 200 g/ha
  Plant response rating (0 to 10 scale), Cocklebur: 0
cocklebur; Rate 200 g/ha, POSTEMERGENCE
  Plant response rating, Cocklebur: 8
corn; POSTEMERGENCE, Rate 50 g/ha
  Plant response rating, Corn: 4
corn; PREEMERGENCE, Rate 50 g/ha
  Plant response rating, Corn: 0
corn; PREEMERGENCE, Rate 200 g/ha
  Plant response rating (0 to 10 scale), Corn: 0
corn; Rate 200 g/ha, POSTEMERGENCE
  Plant response rating, Corn: 4
cotton; POSTEMERGENCE, Rate 50 g/ha
  Plant response rating, Cotton: 10
cotton; PREEMERGENCE, Rate 50 g/ha
  Plant response rating, Cotton: 0
cotton; PREEMERGENCE, Rate 200 g/ha
  Plant response rating (0 to 10 scale), Cotton: 0
cotton; Rate 200 g/ha, POSTEMERGENCE
  Plant response rating, Cotton: 10
crabgrass; POSTEMERGENCE, Rate 50 g/ha
  Plant response rating, Crabgrass: 3
crabgrass; PREEMERGENCE, Rate 50 g/ha
  Plant response rating, Crabgrass: 0
crabgrass; PREEMERGENCE, Rate 200 g/ha
  Plant response rating (0 to 10 scale), Crabgrass: 2
crabgrass; Rate 200 g/ha, POSTEMERGENCE
  Plant response rating, Crabgrass: 6
Giant foxtail; POSTEMERGENCE, Rate 50 g/ha
  Plant response rating, Giant foxtail: 5
Giant foxtail; PREEMERGENCE, Rate 50 g/ha
  Plant response rating, Giant foxtail: 0
Giant foxtail; PREEMERGENCE, Rate 200 g/ha
  Plant response rating (0 to 10 scale), Giant foxtail: 4
Giant foxtail; Rate 200 g/ha, POSTEMERGENCE
  Plant response rating, Giant foxtail: 5
lambsquarters; POSTEMERGENCE, Rate 50 g/ha
  Plant response rating, Lambsquarter: 9
lambsquarters; PREEMERGENCE, Rate 50 g/ha
  Plant response rating, Lambsquarter: 7
lambsquarters; PREEMERGENCE, Rate 200 g/ha
  Plant response rating (0 to 10 scale), Lambsquarter: 10
lambsquarters; Rate 200 g/ha, POSTEMERGENCE
  Plant response rating, Lambsquarter: 10
morningglory; POSTEMERGENCE, Rate 50 g/ha
  Plant response rating, Morningglory: 7
morningglory; PREEMERGENCE, Rate 50 g/ha
  Plant response rating, Morningglory: 0
morningglory; PREEMERGENCE, Rate 200 g/ha
  Plant response rating (0 to 10 scale), Morningglory: 0
morningglory; Rate 200 g/ha, POSTEMERGENCE
  Plant response rating, Morningglory: 8
rape; POSTEMERGENCE, Rate 50 g/ha
  Plant response rating, Rape: 7
rape; PREEMERGENCE, Rate 50 g/ha
  Plant response rating, Rape: 2
rape; PREEMERGENCE, Rate 200 g/ha
  Plant response rating (0 to 10 scale), Rape: 3
rape; Rate 200 g/ha, POSTEMERGENCE
  Plant response rating, Rape: 9
rice; POSTEMERGENCE, Rate 50 g/ha
  Plant response rating, Rice: 5
rice; PREEMERGENCE, Rate 50 g/ha
  Plant response rating, Rice: 0
rice; PREEMERGENCE, Rate 200 g/ha
  Plant response rating (0 to 10 scale), Rice: 0
rice; Rate 200 g/ha, POSTEMERGENCE
  Plant response rating, Rice: 5
sorghum; POSTEMERGENCE, Rate 50 g/ha
  Plant response rating, Sorghum: 5
sorghum; PREEMERGENCE, Rate 50 g/ha
  Plant response rating, Sorghum: 0
sorghum; PREEMERGENCE, Rate 200 g/ha
  Plant response rating (0 to 10 scale), Sorghum: 0
sorghum; Rate 200 g/ha, POSTEMERGENCE
  Plant response rating, Sorghum: 6
soybean; POSTEMERGENCE, Rate 50 g/ha
  Plant response rating, Soybean: 5
soybean; PREEMERGENCE, Rate 50 g/ha
  Plant response rating, Soybean: 0
soybean; PREEMERGENCE, Rate 200 g/ha
  Plant response rating (0 to 10 scale), Soybean: 0
soybean; Rate 200 g/ha, POSTEMERGENCE
  Plant response rating, Soybean: 6
Sugar beet; POSTEMERGENCE, Rate 50 g/ha
  Plant response rating, Sugar beet: 10
Sugar beet; PREEMERGENCE, Rate 50 g/ha
  Plant response rating, Sugar beet: 6
Sugar beet; PREEMERGENCE, Rate 200 g/ha
  Plant response rating (0 to 10 scale), Sugar beet: 10
Sugar beet; Rate 200 g/ha, POSTEMERGENCE
  Plant response rating, Sugar beet: 10
velvetleaf; POSTEMERGENCE, Rate 50 g/ha
  Plant response rating, Velvetleaf: 10
velvetleaf; PREEMERGENCE, Rate 50 g/ha
  Plant response rating, Velvetleaf: 0
velvetleaf; PREEMERGENCE, Rate 200 g/ha
  Plant response rating (0 to 10 scale), Velvetleaf: 5
velvetleaf; Rate 200 g/ha, POSTEMERGENCE
  Plant response rating, Velvetleaf: 10
wheat; POSTEMERGENCE, Rate 50 g/ha
  Plant response rating, Wheat: 4
wheat; PREEMERGENCE, Rate 50 g/ha
  Plant response rating, Wheat: 2
wheat; PREEMERGENCE, Rate 200 g/ha
  Plant response rating (0 to 10 scale), Wheat: 3
wheat; Rate 200 g/ha, POSTEMERGENCE
  Plant response rating, Wheat: 5
Wild buckwheat; POSTEMERGENCE, Rate 50 g/ha
  Plant response rating, Wild buckwheat: 10
Wild buckwheat; PREEMERGENCE, Rate 50 g/ha
  Plant response rating, Wild buckwheat: 8
Wild buckwheat; PREEMERGENCE, Rate 200 g/ha
  Plant response rating (0 to 10 scale), Wild buckwheat: 8
Wild buckwheat; Rate 200 g/ha, POSTEMERGENCE
  Plant response rating, Wild buckwheat: 10
Wild oat; POSTEMERGENCE, Rate 50 g/ha
  Plant response rating, Wild oat: 2
Wild oat; PREEMERGENCE, Rate 50 g/ha
  Plant response rating, Wild oat: 2
Wild oat; PREEMERGENCE, Rate 200 g/ha
  Plant response rating (0 to 10 scale), Wild oat: 3
Wild oat; Rate 200 g/ha, POSTEMERGENCE
  Plant response rating, Wild oat: 3
Purple nutsedge; POSTEMERGENCE, Rate 50 g/ha
  Plant response rating, Nutsedge: 1
Purple nutsedge; PREEMERGENCE, Rate 50 g/ha
  Plant response rating, Nutsedge: 0
Purple nutsedge; PREEMERGENCE, Rate 200 g/ha
  Plant response rating (0 to 10 scale), Nutsedge: 0
Purple nutsedge; Rate 200 g/ha, POSTEMERGENCE
  Plant response rating, Nutsedge: 5
